Results from article PMC4767141, “Discovery of Potent, Orally Bioavailable, Small-Molecule Inhibitors of WNT Signaling from a Cell-Based Pathway Screen” (Journal of Medicinal Chemistry, 2015).
Values joined by “and” are separate entries in the source; they are usually repeats but may differ in a detail not shown here. Identical values can stand only once.

How the values were obtained:
AURKB = target: T1, AURKB (Homo sapiens, UniProt Q96GD4); experiment: Millipore kinase panel; assay type: biochemical; details: read-out: % Control
T1 construct: purchased Millipore KinaseProfiler (kinases); Cerep (receptors and ion channels)

SAPK2B = target: T2, SAPK2B (Homo sapiens, UniProt Q15759); experiment: Millipore kinase panel; assay type: biochemical; details: read-out: % Control
T2 construct: purchased Millipore KinaseProfiler (kinases); Cerep (receptors and ion channels)
T2 sequence (Q15759 whole entry): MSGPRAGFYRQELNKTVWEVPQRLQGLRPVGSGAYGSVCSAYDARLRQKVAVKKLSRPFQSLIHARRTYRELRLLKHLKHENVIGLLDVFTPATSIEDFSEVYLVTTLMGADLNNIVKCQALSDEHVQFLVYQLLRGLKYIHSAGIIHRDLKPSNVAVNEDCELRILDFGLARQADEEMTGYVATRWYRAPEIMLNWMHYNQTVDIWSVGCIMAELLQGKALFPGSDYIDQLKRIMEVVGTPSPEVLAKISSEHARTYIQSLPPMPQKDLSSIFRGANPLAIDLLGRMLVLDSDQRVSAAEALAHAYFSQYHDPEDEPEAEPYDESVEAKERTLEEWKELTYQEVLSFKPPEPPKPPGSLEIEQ

TAO1 = target: T3, TAO1 (Homo sapiens, UniProt Q7L7X3); experiment: Millipore kinase panel; assay type: biochemical; details: read-out: % Control
T3 construct: purchased Millipore KinaseProfiler (kinases); Cerep (receptors and ion channels)

PKA = target: T4, PKA (Homo sapiens, UniProt P17612); experiment: Millipore kinase panel; assay type: biochemical; details: read-out: % Control
T4 construct: purchased Millipore KinaseProfiler (kinases); Cerep (receptors and ion channels)

RET = target: T5, RET (Homo sapiens, UniProt P07949); experiment: Millipore kinase panel; assay type: biochemical; details: read-out: % Control
T5 construct: purchased Millipore KinaseProfiler (kinases); Cerep (receptors and ion channels)

Y2 (h) = target: T6, Y2 (h) (Homo sapiens, UniProt P49146); experiment: CEREP binding panel; details: agonist radioligand, read-out: % Inhibition of Control Specific Binding
T6 construct: purchased Millipore KinaseProfiler (kinases); Cerep (receptors and ion channels)

HIPK1 = target: T7, HIPK1 (Homo sapiens, UniProt Q86Z02); experiment: Millipore kinase panel; assay type: biochemical; details: read-out: % Control
T7 construct: purchased Millipore KinaseProfiler (kinases); Cerep (receptors and ion channels)
T7 sequence (Q86Z02 whole entry): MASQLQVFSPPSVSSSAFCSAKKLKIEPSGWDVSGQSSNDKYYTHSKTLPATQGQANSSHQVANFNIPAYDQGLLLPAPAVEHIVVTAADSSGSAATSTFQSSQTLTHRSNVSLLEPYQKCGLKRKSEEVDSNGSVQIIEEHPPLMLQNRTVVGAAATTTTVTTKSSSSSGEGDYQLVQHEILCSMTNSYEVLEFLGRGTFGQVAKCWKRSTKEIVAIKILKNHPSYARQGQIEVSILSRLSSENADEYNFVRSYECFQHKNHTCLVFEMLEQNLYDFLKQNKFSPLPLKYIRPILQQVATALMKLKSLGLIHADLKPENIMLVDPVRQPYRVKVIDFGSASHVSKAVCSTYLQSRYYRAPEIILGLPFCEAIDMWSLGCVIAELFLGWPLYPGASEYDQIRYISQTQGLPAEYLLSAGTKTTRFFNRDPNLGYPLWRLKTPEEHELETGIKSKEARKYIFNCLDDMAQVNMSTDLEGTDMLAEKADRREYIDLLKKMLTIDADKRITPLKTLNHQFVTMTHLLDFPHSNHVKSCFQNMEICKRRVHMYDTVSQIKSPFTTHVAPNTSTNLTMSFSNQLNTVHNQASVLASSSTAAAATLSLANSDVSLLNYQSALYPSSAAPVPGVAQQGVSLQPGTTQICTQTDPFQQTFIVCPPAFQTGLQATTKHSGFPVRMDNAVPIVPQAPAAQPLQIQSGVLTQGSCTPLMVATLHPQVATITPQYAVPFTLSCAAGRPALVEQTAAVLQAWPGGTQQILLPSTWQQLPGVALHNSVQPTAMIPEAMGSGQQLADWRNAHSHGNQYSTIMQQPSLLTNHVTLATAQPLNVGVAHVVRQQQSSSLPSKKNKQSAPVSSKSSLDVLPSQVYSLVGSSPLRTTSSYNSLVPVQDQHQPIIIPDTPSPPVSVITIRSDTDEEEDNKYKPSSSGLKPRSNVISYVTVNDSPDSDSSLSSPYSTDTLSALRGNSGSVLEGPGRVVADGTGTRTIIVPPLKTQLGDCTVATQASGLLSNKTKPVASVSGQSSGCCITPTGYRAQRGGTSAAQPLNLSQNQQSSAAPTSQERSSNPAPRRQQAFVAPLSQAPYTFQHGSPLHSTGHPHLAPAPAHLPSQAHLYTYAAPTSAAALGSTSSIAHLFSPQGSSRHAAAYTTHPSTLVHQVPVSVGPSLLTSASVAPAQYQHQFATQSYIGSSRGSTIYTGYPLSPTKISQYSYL

KV channel = experiment: CEREP binding panel; details: 10 μM, antagonist radioligand
5-HT5a (h) = target: T8, 5-HT5a (h) (Homo sapiens, UniProt P47898); experiment: CEREP binding panel; details: agonist radioligand, read-out: % Inhibition of Control Specific Binding
T8 construct: purchased Millipore KinaseProfiler (kinases); Cerep (receptors and ion channels)

TAO3 = target: T9, TAO3 (Homo sapiens, UniProt Q9H2K8); experiment: Millipore kinase panel; assay type: biochemical; details: read-out: % Control
T9 construct: purchased Millipore KinaseProfiler (kinases); Cerep (receptors and ion channels)

ALK = target: T10, ALK (Homo sapiens, UniProt Q9UM73); experiment: Millipore kinase panel; assay type: biochemical; details: read-out: % Control
T10 construct: purchased Millipore KinaseProfiler (kinases); Cerep (receptors and ion channels)

MSK2 = target: T11, MSK2 (Homo sapiens, UniProt O75676); experiment: Millipore kinase panel; assay type: biochemical; details: read-out: % Control
T11 construct: purchased Millipore KinaseProfiler (kinases); Cerep (receptors and ion channels)

GAL2 (h) = target: T12, GAL2 (h) (Homo sapiens, UniProt O43603); experiment: CEREP binding panel; details: agonist radioligand, read-out: % Inhibition of Control Specific Binding
T12 construct: purchased Millipore KinaseProfiler (kinases); Cerep (receptors and ion channels)

H2 (h) = target: T13, H2 (h) (Homo sapiens, UniProt P25021); experiment: CEREP binding panel; details: antagonist radioligand, read-out: % Inhibition of Control Specific Binding
T13 construct: purchased Millipore KinaseProfiler (kinases); Cerep (receptors and ion channels)

AXL = target: T14, AXL (Homo sapiens, UniProt P30530); experiment: Millipore kinase panel; assay type: biochemical; details: read-out: % Control
T14 construct: purchased Millipore KinaseProfiler (kinases); Cerep (receptors and ion channels)

5-HT2A (h) = target: T15, 5-HT2A (h) (Homo sapiens, UniProt P28223); experiment: CEREP binding panel; details: antagonist radioligand, read-out: % Inhibition of Control Specific Binding
T15 construct: purchased Millipore KinaseProfiler (kinases); Cerep (receptors and ion channels)

SGK3 = target: T16, SGK3 (Homo sapiens, UniProt Q96BR1); experiment: Millipore kinase panel; assay type: biochemical; details: read-out: % Control
T16 construct: purchased Millipore KinaseProfiler (kinases); Cerep (receptors and ion channels)
T16 sequence (Q96BR1 whole entry): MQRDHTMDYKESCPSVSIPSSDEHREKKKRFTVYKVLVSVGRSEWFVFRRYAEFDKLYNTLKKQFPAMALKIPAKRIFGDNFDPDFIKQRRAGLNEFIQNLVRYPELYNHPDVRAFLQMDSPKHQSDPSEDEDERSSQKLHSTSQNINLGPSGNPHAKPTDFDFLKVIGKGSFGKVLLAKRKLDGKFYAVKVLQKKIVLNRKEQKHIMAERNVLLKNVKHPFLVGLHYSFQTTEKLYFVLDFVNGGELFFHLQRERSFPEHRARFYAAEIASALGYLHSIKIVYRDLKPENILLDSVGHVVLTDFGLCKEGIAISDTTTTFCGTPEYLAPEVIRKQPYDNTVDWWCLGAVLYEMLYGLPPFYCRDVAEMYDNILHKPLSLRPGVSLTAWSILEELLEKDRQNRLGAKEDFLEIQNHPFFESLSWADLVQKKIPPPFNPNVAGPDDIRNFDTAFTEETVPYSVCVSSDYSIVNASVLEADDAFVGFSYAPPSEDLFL

PKCZETA = target: T17, PKCZETA (Homo sapiens, UniProt Q05513); experiment: Millipore kinase panel; assay type: biochemical; details: read-out: % Control
T17 construct: purchased Millipore KinaseProfiler (kinases); Cerep (receptors and ion channels)
T17 sequence (Q05513 whole entry): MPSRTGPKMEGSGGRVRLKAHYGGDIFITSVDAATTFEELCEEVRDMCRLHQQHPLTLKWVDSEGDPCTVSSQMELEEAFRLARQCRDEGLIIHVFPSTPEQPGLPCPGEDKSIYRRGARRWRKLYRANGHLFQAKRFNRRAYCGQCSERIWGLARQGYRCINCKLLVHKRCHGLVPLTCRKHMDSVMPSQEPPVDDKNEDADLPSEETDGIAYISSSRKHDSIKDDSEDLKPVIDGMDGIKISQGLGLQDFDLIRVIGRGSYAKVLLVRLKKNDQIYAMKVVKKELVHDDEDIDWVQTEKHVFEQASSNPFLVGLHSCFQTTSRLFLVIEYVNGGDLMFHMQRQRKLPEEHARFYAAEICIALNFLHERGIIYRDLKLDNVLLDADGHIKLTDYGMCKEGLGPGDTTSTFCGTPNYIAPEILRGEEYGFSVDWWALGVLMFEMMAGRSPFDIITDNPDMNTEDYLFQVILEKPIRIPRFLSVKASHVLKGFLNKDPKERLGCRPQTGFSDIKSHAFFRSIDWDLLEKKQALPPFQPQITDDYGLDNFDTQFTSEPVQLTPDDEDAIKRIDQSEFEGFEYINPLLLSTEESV

RSK4 = target: T18, RSK4 (Homo sapiens, UniProt Q9UK32); experiment: Millipore kinase panel; assay type: biochemical; details: read-out: % Control
T18 construct: purchased Millipore KinaseProfiler (kinases); Cerep (receptors and ion channels)

PAK6 = target: T19, PAK6 (Homo sapiens, UniProt Q9NQU5); experiment: Millipore kinase panel; assay type: biochemical; details: read-out: % Control
T19 construct: purchased Millipore KinaseProfiler (kinases); Cerep (receptors and ion channels)

EPHA1 = target: T20, EPHA1 (Homo sapiens, UniProt P21709); experiment: Millipore kinase panel; assay type: biochemical; details: read-out: % Control
T20 construct: purchased Millipore KinaseProfiler (kinases); Cerep (receptors and ion channels)

CHK2 = target: T21, CHK2 (Homo sapiens, UniProt O96017); experiment: Millipore kinase panel; assay type: biochemical; details: read-out: % Control
T21 construct: purchased Millipore KinaseProfiler (kinases); Cerep (receptors and ion channels)

PI3 KINASE (P110A/P85A) = experiment: Millipore kinase panel; assay type: biochemical; details: 1 μM, ATP at Km
PDGFRBETA = target: T22, PDGFRBETA (Homo sapiens, UniProt P09619); experiment: Millipore kinase panel; assay type: biochemical; details: read-out: % Control
T22 construct: purchased Millipore KinaseProfiler (kinases); Cerep (receptors and ion channels)

PAK4 = target: T23, PAK4 (Homo sapiens, UniProt O96013); experiment: Millipore kinase panel; assay type: biochemical; details: read-out: % Control
T23 construct: purchased Millipore KinaseProfiler (kinases); Cerep (receptors and ion channels)

MAPKAP-K2 = target: T24, MAPKAP-K2 (Homo sapiens, UniProt P49137); experiment: Millipore kinase panel; assay type: biochemical; details: read-out: % Control
T24 construct: purchased Millipore KinaseProfiler (kinases); Cerep (receptors and ion channels)

RON = target: T25, RON (Homo sapiens, UniProt Q04912); experiment: Millipore kinase panel; assay type: biochemical; details: read-out: % Control
T25 construct: purchased Millipore KinaseProfiler (kinases); Cerep (receptors and ion channels)
T25 sequence (Q04912 25-1400): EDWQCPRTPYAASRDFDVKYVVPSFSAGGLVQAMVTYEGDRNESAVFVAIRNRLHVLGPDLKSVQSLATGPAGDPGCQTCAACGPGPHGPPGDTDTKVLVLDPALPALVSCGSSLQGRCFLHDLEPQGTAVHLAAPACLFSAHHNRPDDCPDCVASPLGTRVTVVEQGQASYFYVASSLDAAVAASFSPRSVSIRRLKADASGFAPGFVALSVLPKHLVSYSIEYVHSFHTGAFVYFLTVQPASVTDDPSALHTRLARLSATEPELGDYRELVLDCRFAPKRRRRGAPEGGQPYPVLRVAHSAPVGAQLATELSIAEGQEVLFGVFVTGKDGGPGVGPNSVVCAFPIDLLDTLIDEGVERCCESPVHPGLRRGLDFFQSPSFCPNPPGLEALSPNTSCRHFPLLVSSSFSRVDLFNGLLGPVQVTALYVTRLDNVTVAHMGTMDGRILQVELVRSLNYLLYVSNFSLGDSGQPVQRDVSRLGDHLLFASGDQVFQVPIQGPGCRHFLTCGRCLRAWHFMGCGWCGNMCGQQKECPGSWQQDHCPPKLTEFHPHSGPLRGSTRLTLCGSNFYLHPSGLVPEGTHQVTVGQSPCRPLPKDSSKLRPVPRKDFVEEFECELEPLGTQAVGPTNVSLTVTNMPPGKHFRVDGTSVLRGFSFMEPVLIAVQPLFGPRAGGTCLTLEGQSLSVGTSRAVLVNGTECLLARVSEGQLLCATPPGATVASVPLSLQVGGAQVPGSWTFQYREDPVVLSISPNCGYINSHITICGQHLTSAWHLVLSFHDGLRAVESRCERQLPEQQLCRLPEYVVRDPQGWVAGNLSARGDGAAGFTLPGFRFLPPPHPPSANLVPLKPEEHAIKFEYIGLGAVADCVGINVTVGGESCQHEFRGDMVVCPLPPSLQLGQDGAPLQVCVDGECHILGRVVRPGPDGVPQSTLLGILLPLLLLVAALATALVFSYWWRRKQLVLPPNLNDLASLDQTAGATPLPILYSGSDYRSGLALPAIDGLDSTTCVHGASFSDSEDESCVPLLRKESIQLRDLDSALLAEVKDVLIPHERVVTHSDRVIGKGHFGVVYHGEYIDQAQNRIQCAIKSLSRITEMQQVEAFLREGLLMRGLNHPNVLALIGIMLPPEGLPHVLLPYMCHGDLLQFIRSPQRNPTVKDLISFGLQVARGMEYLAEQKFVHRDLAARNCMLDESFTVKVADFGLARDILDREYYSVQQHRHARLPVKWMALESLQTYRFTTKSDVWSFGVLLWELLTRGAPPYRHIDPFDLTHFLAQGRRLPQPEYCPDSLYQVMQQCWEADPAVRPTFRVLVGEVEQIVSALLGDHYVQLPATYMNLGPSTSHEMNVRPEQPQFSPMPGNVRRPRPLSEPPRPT

M2 (h) = target: T26, M2 (h) (Homo sapiens, UniProt P08172); experiment: CEREP binding panel; details: antagonist radioligand, read-out: % Inhibition of Control Specific Binding
T26 construct: purchased Millipore KinaseProfiler (kinases); Cerep (receptors and ion channels)

SGK2 = target: T27, SGK2 (Homo sapiens, UniProt Q9HBY8); experiment: Millipore kinase panel; assay type: biochemical; details: read-out: % Control
T27 construct: purchased Millipore KinaseProfiler (kinases); Cerep (receptors and ion channels)

BLK = experiment: Millipore kinase panel; assay type: biochemical; details: 1 μM, ATP at Km
NOP (ORL1) (h) = target: T28, NOP (ORL1) (h) (Homo sapiens, UniProt P41146); experiment: CEREP binding panel; details: agonist radioligand, read-out: % Inhibition of Control Specific Binding
T28 construct: purchased Millipore KinaseProfiler (kinases); Cerep (receptors and ion channels)

TRKB = target: T29, TRKB (Homo sapiens, UniProt Q16620); experiment: Millipore kinase panel; assay type: biochemical; details: read-out: % Control
T29 construct: purchased Millipore KinaseProfiler (kinases); Cerep (receptors and ion channels)

CDK9/CYCLINT1 = target: T30, CDK9/CYCLINT1 (Homo sapiens, UniProt P50750); experiment: Millipore kinase panel; assay type: biochemical; details: read-out: % Control
T30 construct: purchased Millipore KinaseProfiler (kinases); Cerep (receptors and ion channels)

EPHA5 = target: T31, EPHA5 (Homo sapiens, UniProt P54756); experiment: Millipore kinase panel; assay type: biochemical; details: read-out: % Control
T31 construct: purchased Millipore KinaseProfiler (kinases); Cerep (receptors and ion channels)

ITK = target: T32, ITK (Homo sapiens, UniProt Q08881); experiment: Millipore kinase panel; assay type: biochemical; details: read-out: % Control
T32 construct: purchased Millipore KinaseProfiler (kinases); Cerep (receptors and ion channels)

PDGFRALPHA = target: T33, PDGFRALPHA (Homo sapiens, UniProt P16234); experiment: Millipore kinase panel; assay type: biochemical; details: read-out: % Control
T33 construct: purchased Millipore KinaseProfiler (kinases); Cerep (receptors and ion channels)

FMS = target: T34, FMS (Homo sapiens, UniProt P07333); experiment: Millipore kinase panel; assay type: biochemical; details: read-out: % Control
T34 construct: purchased Millipore KinaseProfiler (kinases); Cerep (receptors and ion channels)

SNK = target: T35, SNK (Homo sapiens, UniProt Q9NYY3); experiment: Millipore kinase panel; assay type: biochemical; details: read-out: % Control
T35 construct: purchased Millipore KinaseProfiler (kinases); Cerep (receptors and ion channels)

GRK5 = target: T36, GRK5 (Homo sapiens, UniProt P34947); experiment: Millipore kinase panel; assay type: biochemical; details: read-out: % Control
T36 construct: purchased Millipore KinaseProfiler (kinases); Cerep (receptors and ion channels)
T36 sequence (P34947 whole entry): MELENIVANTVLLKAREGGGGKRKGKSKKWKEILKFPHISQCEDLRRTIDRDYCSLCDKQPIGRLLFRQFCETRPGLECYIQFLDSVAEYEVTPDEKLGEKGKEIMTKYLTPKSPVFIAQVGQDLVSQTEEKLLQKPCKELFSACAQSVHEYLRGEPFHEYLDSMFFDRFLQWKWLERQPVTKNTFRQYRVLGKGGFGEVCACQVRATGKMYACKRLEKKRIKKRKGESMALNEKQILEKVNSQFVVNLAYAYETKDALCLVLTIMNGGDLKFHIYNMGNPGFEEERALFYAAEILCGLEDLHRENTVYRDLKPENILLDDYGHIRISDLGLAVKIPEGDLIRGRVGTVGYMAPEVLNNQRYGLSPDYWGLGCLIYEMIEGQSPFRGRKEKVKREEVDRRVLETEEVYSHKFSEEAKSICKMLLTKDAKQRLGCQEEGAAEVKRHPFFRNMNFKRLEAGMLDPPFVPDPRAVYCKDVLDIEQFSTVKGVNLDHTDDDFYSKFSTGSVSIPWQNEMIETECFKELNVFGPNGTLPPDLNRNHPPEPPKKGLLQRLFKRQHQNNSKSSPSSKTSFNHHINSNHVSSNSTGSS

MST3 = target: T37, MST3 (Homo sapiens, UniProt Q9Y6E0); experiment: Millipore kinase panel; assay type: biochemical; details: read-out: % Control
T37 construct: purchased Millipore KinaseProfiler (kinases); Cerep (receptors and ion channels)

FES = target: T38, FES (Homo sapiens, UniProt P07332); experiment: Millipore kinase panel; assay type: biochemical; details: read-out: % Control
T38 construct: purchased Millipore KinaseProfiler (kinases); Cerep (receptors and ion channels)

JAK2 = target: T39, JAK2 (Homo sapiens, UniProt O60674); experiment: Millipore kinase panel; assay type: biochemical; details: read-out: % Control
T39 construct: purchased Millipore KinaseProfiler (kinases); Cerep (receptors and ion channels)

HASPIN = target: T40, HASPIN (Homo sapiens, UniProt Q8TF76); experiment: Millipore kinase panel; assay type: biochemical; details: read-out: % Control
T40 construct: purchased Millipore KinaseProfiler (kinases); Cerep (receptors and ion channels)

VPAC1 (VIP1) (h) = target: T41, VPAC1 (VIP1) (h) (Homo sapiens, UniProt P32241); experiment: CEREP binding panel; details: agonist radioligand, read-out: % Inhibition of Control Specific Binding
T41 construct: purchased Millipore KinaseProfiler (kinases); Cerep (receptors and ion channels)
T41 sequence (P32241 31-457): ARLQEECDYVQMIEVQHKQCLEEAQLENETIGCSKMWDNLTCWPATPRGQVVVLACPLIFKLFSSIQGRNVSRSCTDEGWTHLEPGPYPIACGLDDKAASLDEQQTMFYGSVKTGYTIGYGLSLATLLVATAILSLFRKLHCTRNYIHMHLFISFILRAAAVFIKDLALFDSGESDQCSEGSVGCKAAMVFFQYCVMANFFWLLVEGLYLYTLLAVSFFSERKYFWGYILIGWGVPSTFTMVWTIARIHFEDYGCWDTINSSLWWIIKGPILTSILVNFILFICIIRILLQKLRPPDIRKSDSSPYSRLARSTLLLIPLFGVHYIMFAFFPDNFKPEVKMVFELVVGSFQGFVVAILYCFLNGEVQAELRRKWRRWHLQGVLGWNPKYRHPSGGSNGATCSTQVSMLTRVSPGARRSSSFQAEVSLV

Which results are given for `Cn1cc(-c2ccc(-c3cncc(Cl)c3N3CCC4(CCNC4=O)CC3)cc2)cn1` [Compound 74, 8-(3-Chloro-5-(4-(1-methyl-1H-pyrazol-4-yl)phenyl)pyridin-4-yl)-2,8-diazaspiro[4.5]decan-1-one]?
remaining activity at 1 µM (AURKB): -8%; remaining activity at 1 µM (SAPK2B): 0%; remaining activity at 1 µM (TAO1): -14%; remaining activity at 1 µM (PKA): 24%; remaining activity at 1 µM (RET): 1%; inhibition at 10 µM (Y2 (h)): -2%; remaining activity at 1 µM (HIPK1): 10%; % Inhibition of Control Specific Binding (KV channel): -13%; inhibition at 10 µM (5-HT5a (h)): 1%; remaining activity at 1 µM (TAO3): -24%; remaining activity at 1 µM (ALK): -22%; remaining activity at 1 µM (MSK2): -6%; inhibition at 10 µM (GAL2 (h)): 2%; inhibition at 10 µM (H2 (h)): -2%; remaining activity at 1 µM (AXL): -18%; inhibition at 10 µM (5-HT2A (h)): 1%; remaining activity at 1 µM (SGK3): -9%; remaining activity at 1 µM (PKCZETA): -7%; remaining activity at 1 µM (RSK4): -17%; remaining activity at 1 µM (PAK6): -2%; remaining activity at 1 µM (EPHA1): -2%; remaining activity at 1 µM (CHK2): 7%; % Control (PI3 KINASE (P110A/P85A)): -1%; remaining activity at 1 µM (PDGFRBETA): -6%; remaining activity at 1 µM (PAK4): 9%; remaining activity at 1 µM (MAPKAP-K2): 0%; remaining activity at 1 µM (RON): -9%; inhibition at 10 µM (M2 (h)): 38%; remaining activity at 1 µM (SGK2): -17%; % Control (BLK): 0% and 6%; inhibition at 10 µM (NOP (ORL1) (h)): 3%; remaining activity at 1 µM (TRKB): -25%; remaining activity at 1 µM (CDK9/CYCLINT1): -29%; remaining activity at 1 µM (EPHA5): 6%; remaining activity at 1 µM (ITK): -3%; remaining activity at 1 µM (PDGFRALPHA): -5%; remaining activity at 1 µM (FMS): -21%; remaining activity at 1 µM (SNK): -1%; remaining activity at 1 µM (GRK5): -5%; remaining activity at 1 µM (MST3): -7%; remaining activity at 1 µM (FES): -14%; remaining activity at 1 µM (JAK2): 11%; remaining activity at 1 µM (HASPIN): -11%; inhibition at 10 µM (VPAC1 (VIP1) (h)): 0%
